Assay: Polymorphic stability study of the stable form of Erlotinib hydrochloride (PXRD, DSC, IR on storage)
Format: physicochemical
Details: for DSC / IR / PXRD: should comply with data of stable polymorphic form
Method: (Refrigerator), 25° C.±2° C./60%±5% RH, 30° C.±2° C./65%±5% RH (Real Time) and 40° C.±2° C./75%±5% RH of the stable form of Erlotinib Hydrochloride.
• Powder X-ray Diffraction: X-ray powder diffraction spectrum was observed on a MF 2100 2 KW X-ray Powder diffractometer of make Rigaku having a Copper Kα-radiation at a voltage of 40 kV and 30 mA. Approximately 150 mg sample was gently flattened on a quartz plate without further processing (e.g. Grinding and sieving) and scanned from 4° to 40° at 0.010° sampling width and 4.000° per minute. • IR Spectroscopy: The IR spectra was performed on 8400S of make Shimadzu by using KBr pellet and recorded from 4000 to 400 cm^−1. About 2 mg of sample was triturated with 300 mg of finely powdered and dried potassium bromide. The mixture was carefully grinded, spread uniformly in a suitable die and submitted it in vacuum to a pressure of about 800 MPa […]. From the FTIR spectrum a blank FT-IR spectrum of KBr was subtracted. The blank IR spectrum was recorded prior to the measurement of the samples.
Differential Scanning Calorimetry (DSC): Melting points are determined by means of a DSC thermogram using a Pyris-1 make Perkin Elmer. DSC (Differential Scanning Calorimetry) is the technique of dynamic differential Calorimetry. Using this technique, the melting temperature can be measured by heating the sample until a thermal, i.e. an endothermic or exothermic, reaction is detected by means of ultrasensitive sensors. The DSC cell/sample chamber was purged with 100 ml/min of ultra-high purity nitrogen. The instrument was calibrated with high purity Indium. The sample was placed into an open aluminum DSC pan and measured against an empty reference pan. About 2 mg of sample being placed into the bottom of the pan and lightly tapped down to ensure good contact with the pan. The instrument was programmed to heat at a heating rate of 10° C./min in the temperature range between 50° C. and 300° C. • Microscope: A Lieca Microscope with Linkam Hot stage microscopy (TMS-94) system with polarized light, CCD camera and Linksys 32 data software. • HPLC: High Performance Liquid Chromatography Separation Module with PDA detector, Make Waters, Model No 2695. • KF: Moisture content was analyzed by using Karl Fisher Autotitrator 795 KFT Titrino make Metrohm.

[1] = 5° C. ± 3° C. (Refrigerator), Month 1
[2] = 5° C. ± 3° C. (Refrigerator), Month 2
[3] = 5° C. ± 3° C. (Refrigerator), Month 3
[4] = 5° C. ± 3° C. (Refrigerator), Month 6
[5] = 25° C. ± 2° C./60% ±5% RH, Month 1
[6] = 25° C. ± 2° C./60% ±5% RH, Month 2
[7] = 25° C. ± 2° C./60% ±5% RH, Month 3
[8] = 25° C. ± 2° C./60% ±5% RH, Month 6
[9] = 30° C. ± 2° C./65% ±5% RH (Real Time), Month 1
[10] = 30° C. ± 2° C./65% ±5% RH (Real Time), Month 2
[11] = 30° C. ± 2° C./65% ±5% RH (Real Time), Month 3
[12] = 30° C. ± 2° C./65% ±5% RH (Real Time), Month 6
[13] = 40° C. ± 2° C./75% ±5% RH, Month 1
[14] = 40° C. ± 2° C./75% ±5% RH, Month 2
[15] = 40° C. ± 2° C./75% ±5% RH, Month 3
[16] = 40° C. ± 2° C./75% ±5% RH, Month 6

DSC [1]: Complies
IR [1]: Complies
PXRD [1]: Complies
DSC [2]: Complies
IR [2]: Complies
PXRD [2]: Complies
DSC [3]: Complies
IR [3]: Complies
PXRD [3]: Complies
DSC [4]: Complies
IR [4]: Complies
PXRD [4]: Complies
DSC [5]: Complies
IR [5]: Complies
PXRD [5]: Complies
DSC [6]: Complies
IR [6]: Complies
PXRD [6]: Complies
DSC [7]: Complies
IR [7]: Complies
PXRD [7]: Complies
DSC [8]: Complies
IR [8]: Complies
PXRD [8]: Complies
DSC [9]: Complies
IR [9]: Complies
PXRD [9]: Complies
DSC [10]: Complies
IR [10]: Complies
PXRD [10]: Complies
DSC [11]: Complies
IR [11]: Complies
PXRD [11]: Complies
DSC [12]: Complies
IR [12]: Complies
PXRD [12]: Complies
DSC [13]: Complies
IR [13]: Complies
PXRD [13]: Complies
DSC [14]: Complies
IR [14]: Complies
PXRD [14]: Complies
DSC [15]: Complies
IR [15]: Complies
PXRD [15]: Complies
DSC [16]: Complies
IR [16]: Complies
PXRD [16]: Complies
Compound: C#Cc1cccc(Nc2ncnc3cc(OCCOC)c(OCCOC)cc23)c1.Cl [Erlotinib hydrochloride, 4-(3-Ethynylphenylamino)-6,7-bis(2-methoxyethoxy)-quinazoline]
retention of polymorphic and chemical identity on storage (both stability studies, all storage conditions): retained the same polymorphic and chemical identity at least up to six months

From patent US20140121373A1, “PROCESS FOR PREPARING STABLE POLYMORPHIC FORM OF ERLOTINIB HYDROCHLORIDE” (CADILA HEALTHCARE LIMITED, priority 2011, published 2014)
